From patent US9776967B2, “Carboxamide derivatives as pesticidal compounds” (priority 2013, dated 2017) come the findings set out here.

Series [1] is described as follows: LogP by HPLC on reversed phase columns (EEC directive 79/831 Annex V.A8). Format: physicochemical. The procedure: Calibration was done with straight-chain alkan2-ones (with 3 to 16 carbon atoms) with known Log P values (measurement of Log P values using retention times with linear interpolation between successive alkanones). Lambda-max-values were determined using UV-spectra from 200 nm to 400 nm and the peak values of the chromatographic signals.

The next series deals with Haemonchus contortus. In words: In vitro assay with Haemonchus contortus (HAEMCO), larval mortality. The following applies: 120 h; for Emax at 0.8 ppm / Emax at 4 ppm / Emax at 20 ppm: HAEMCO, 5dat, comparative example, read-out: % Efficacy; for mortality at 20 ppm: read-out: activity (larval mortality). On the procedure: In Vitro Assay with Haemonchus contortus (HAEMCO)
(§1) Solvent: Dimethyl Sulfoxide
(§2) To produce a suitable preparation of active compound, 10 mg of active compound are dissolved in 0.5 ml solvent, and the concentrate is diluted with “Ringer's solution” to the desired concentration.
Approximately 40 larvae of the red stomach worm (Haemonchus contortus) are transferred into a test tube containing compound solution.
After 5 days percentage of larval mortality are recorded. 100% efficacy means all larvae are killed, 0% efficacy means no larvae are killed.

The test system of another series is Meloidogyne incognita. Kind of series: Meloidogyne incognita (MELGIN) assay, gall formation on salad seedlings. Format: in vivo. Particulars: 336 h, after 14 days, read-out: nematicidal activity (percentage of gall formation; 100% = no galls). The procedure: Meloidogyne incognita (MELGIN) Assay
Solvent: 125.0 parts by weight of acetone
To produce a suitable preparation of active compound, 1 part by weight of active compound is mixed with the stated amount of solvent, and the concentrate is diluted with water to the desired concentration.
Vessels are filled with sand, a solution of the active ingredient, a suspension containing eggs and larvae of the southern root-knot nematode (Meloidogyne incognita) and salad seeds. The salad seeds germinate and the seedlings grow. Galls develop in the roots.
After 14 days the nematicidal activity is determined on the basis of the percentage of gall formation. 100% means no galls were found and 0% means the number of galls found on the roots of the treated plants was equal to that in untreated control plants.

For series [2], the system named is Nippostrongylus brasiliensis. Kind of series: In vitro assay with Nippostrongylus brasiliensis (NIPOBR), acetylcholine esterase readout. Particulars: adult worms, read-out: activity (reduction of AChE compared to negative control); for inhibition at 1 ppm: 1 ppm (1 μg/ml); for inhibition at 10 ppm: 10 ppm (10 μg/ml). On the procedure: In Vitro Assay with Nippostrongylus brasiliensis (NIPOBR)
Adult Nippostrongylus brasiliensis were washed with saline buffer containing 100 U/ml penicillin, 0.1 mg/ml streptomycin and 2.5 μg/ml amphotericin B. Test compounds were dissolved in DMSO and worms were incubated in medium in a final concentration of 10 μg/ml (10 ppm) respectively 1 μg/ml (1 ppm). An aliquot of the medium was used to determine the acetylcholine esterase activity in comparison to a negative control. The principle of measuring acetylcholine esterase as readout for anthelmintic activity was described in Rapson et al (1986) and Rapson et al (1987).

A further series deals with Cooperia curticei. Kind of series: In vitro assay with Cooperia curticei (COOPCU), larval mortality. Particulars: 120 h, read-out: activity (larval mortality). The procedure:
In Vitro Assay with Cooperia curticei (COOPCU)
as §1, §2
Approximately 40 nematode larvae (Cooperia curticei) are transferred into a test tube containing the compound solution.
After 5 days percentage of larval mortality is recorded. 100% efficacy means all larvae are killed; 0% efficacy means no larvae are killed.

Setting [3] is: LC-UV, acidic range, 0.1% formic acid in water and acetonitrile, read-out: logP (HCOOH) [a].

The structures appear in SMILES notation. Like-named read-outs stand apart in the source and are kept apart here.

The compound `O=C(NCC(F)(F)c1ncc(-c2ccc(F)cc2)cc1Cl)c1ccccc1C(F)(F)F` [Example 24] showed a chromatographic logP in series [1] (logP (HCOOH) [a]) of 3.74. Besides, in the series on Haemonchus contortus, the Emax at 0.8 ppm stood at 100%, the Emax at 4 ppm turned out to be 100% and the mortality at 20 ppm came to 100%. Moreover, the Emax at 20 ppm with Haemonchus contortus (20 ppm) amounted to 100%. Also, in the series on Meloidogyne incognita, the pest or weed control at 20 ppm was determined as 100%. Also, in series [2], the inhibition at 1 ppm is at least 60% and the inhibition at 10 ppm is at least 60%. The mortality at 20 ppm in the series with Cooperia curticei was found to be 100%.
Compound `O=C(NCC(F)(F)c1ncc(-c2ccc(F)c(F)c2)cc1Cl)c1ccccc1C(F)(F)F` [Example 14] returned a chromatographic logP in series [1] (logP (HCOOH) [a]) of 3.84. In addition, in the series with Haemonchus contortus, the mortality at 20 ppm was 100%. Also, the pest or weed control at 20 ppm with Meloidogyne incognita came to 100%. Besides, in series [2], the inhibition at 1 ppm was at least 60% and the inhibition at 10 ppm is at least 60%. For the same compound, the mortality at 20 ppm with Cooperia curticei turned out to be 100%.
As for `O=C(NCC(F)(F)c1ncc(-c2cc(Cl)cc(Cl)c2)cc1Cl)c1ccccc1C(F)(F)F` [Example 11], the chromatographic logP in series [1] (logP (HCOOH) [a]) stood at 4.64. Besides, the mortality at 20 ppm in the series with Haemonchus contortus and with Cooperia curticei was 100% in each case. Further, the pest or weed control at 20 ppm in the series on Meloidogyne incognita was 90%. Moreover, in series [2], the inhibition at 1 ppm was at least 60%. In addition, the inhibition at 10 ppm in series [2] was at least 60%.
In turn, `O=C(NCC(F)(F)c1ncc(-c2ccc3c(c2)OCO3)cc1Cl)c1ccccc1C(F)(F)F` [Example 8] returned a chromatographic logP in series [1] (logP (HCOOH) [a]) of 3.53. Also, in the series on Haemonchus contortus, the mortality at 20 ppm stood at 100%. Besides, the pest or weed control at 20 ppm in the series on Meloidogyne incognita was found to be 100%. In series [2], the inhibition at 1 ppm is at least 60% and the inhibition at 10 ppm was at least 60%. In addition, the mortality at 20 ppm in the series on Cooperia curticei was 100%.
For `O=C(NCC(F)(F)c1ncc(-c2ccccc2)cc1Cl)c1ccccc1C(F)(F)F` [Example 5], the chromatographic logP in series [1] (logP (HCOOH) [a]) turned out to be 3.75. Also, the mortality at 20 ppm with Haemonchus contortus and in the series with Cooperia curticei was 100% in each case. The pest or weed control at 20 ppm with Meloidogyne incognita came out at 90%. In addition, the inhibition at 1 ppm in series [2] was at least 60%. Moreover, the inhibition at 10 ppm in series [2] is at least 60%.
`O=C(NCCc1ncc(-c2ccc(Cl)cc2)cc1Cl)c1ccccc1C(F)(F)F` [Example 1, N-{2-[3-chloro-5-(4-chlorophenyl)pyridin-2-yl]ethyl}-2-(trifluoromethyl)benzamide]: in series [1] (setting [3]), the chromatographic logP stood at 3.97. Besides, the mortality at 20 ppm in the series on Haemonchus contortus (20 ppm, after 5 days) was 100%. Moreover, in the series with Haemonchus contortus, the Emax at 0.8 ppm amounted to 100% and the Emax at 4 ppm is 100%. In the series with Haemonchus contortus (20 ppm), the Emax at 20 ppm was determined as 100%. Also, in the series with Meloidogyne incognita, the pest or weed control at 20 ppm amounted to 100%. Further, in series [2], the inhibition at 1 ppm is at least 60% and the inhibition at 10 ppm is at least 60%. For the same compound, in the series on Cooperia curticei, the mortality at 20 ppm came to 100%.
In the case of `O=C(NCC(F)(F)c1ncc(-c2ccc(OC(F)F)cc2)cc1Cl)c1ccccc1C(F)(F)F` [Example 4], the chromatographic logP in series [1] (logP (HCOOH) [a]) came to 3.78. Also, the mortality at 20 ppm in the series on Haemonchus contortus and in the series with Cooperia curticei was 100% throughout. Moreover, the pest or weed control at 20 ppm with Meloidogyne incognita was found to be 100%. Also, the inhibition at 1 ppm in series [2] was at least 60%. In series [2], the inhibition at 10 ppm was at least 60%.
As to `COc1ccc(-c2cnc(C(F)(F)CNC(=O)c3ccccc3C(F)(F)F)c(Cl)c2)cc1` [Example 7], the chromatographic logP in series [1] (setting [3]) worked out at 3.68. Further, the mortality at 20 ppm in the series on Haemonchus contortus (20 ppm, after 5 days) stood at 100%. Further, in the series on Meloidogyne incognita, the pest or weed control at 20 ppm stood at 100%. In series [2], the inhibition at 1 ppm is at least 60% and the inhibition at 10 ppm is at least 60%. Besides, the mortality at 20 ppm in the series on Cooperia curticei amounted to 100%.

As a reminder, the mortality is the share of the test organisms that died.
